According to PMC8100298, “Histone deacetylase inhibitor resminostat in combination with sorafenib counteracts platelet-mediated pro-tumoral effects in hepatocellular carcinoma” (Scientific Reports, 2021):
Like-named read-outs stand apart in the source and are kept apart here.

What was measured:
Assay in all cases: Efficacy screening assay
Type in all cases: cell-based
[1] = system: SKMEL28; settings: Homo sapiens, SK-MEL-28, SKMEL28, skin, 72 h
Method: (§1) labelled fluorogenic peptide substrates: fluorogenic peptide from p53 residues 379-382 (RHKK(Ac)AMC) for HDAC1, 2, 3, 6, 10, 11; fluorogenic HDAC Class IIa Substrate (Trifluoro acetyl Lysine, Ac-LGK(TFA)-AMC) for HDAC 4, 5, 7, 9; and fluorogenic peptide from p53 residues 379-382 (RHK(Ac)K(Ac)AMC) for HDAC8. 1 mg/mL BSA and DMSO was added to the assay buffer (50 mM Tris-HCl, pH 8.0; 137 mM NaCl; 2.7 mM KCl; 1 mM MgCl2) prior to use. In a two-step reaction, the substrate with the acetylated lysine side chain was incubated for with a sample containing HDAC activity to p roduce the deacetylated products: 1 h at 30°C for HDAC1, 2, 3 and 6; 30 min at RT for HDAC4, 5, 7 and 9; 2 h at 30°C for HDAC8, 10 and 11. In a second step, the deacetylated products were digested by the addition of developer for 1 h at 30°C to produce the fluorescent signal proportional to the amount of deacetylated substrates and the fluorescence was measured using an Envision plate reader at 355 nm (excitation) and 460 nm (emission). A kinetic measurement was performed for ~1 h with 5 min intervals and d ata from the final time point were analysed. IC50 values and curve fits were obtained using GraphPad Softwar e.
(§2) The experiment was performed by Oncolead GmbH & Co. KG (Karlsfeld , Germany), based on a standardized screening procedure . Cell lines were purchased directly from the ATCC, NCI and DSMZ cell line c ollections. Cells used for the study had undergone less than 20 passages. To ensure the absence of potential contamination and wrong assignment, all cell lines were tested using a whole genome assay (Agilent, USA). All cell lines were grown as recommended by the suppliers and with addition of 100 U/mL penicillin G and 100 µg/mL; streptomycin. Cell growth and treatments were performed in Nunclon D 96 -well plates (NUNC, Germany). The optimal seeding density for each cell line was determined to ensure exponential growth for the duration of the experiment. All cells growing without anti-cancer agents were sub-conﬂuent by the end of the treatment, as determined by visual inspection.
(§3) After an initial 24 h pre-growth period, the compounds were added. The vehicle concentration […]
(§4) was 0.1% DMSO. After incubation at 37°C for 72 h, the culture medium was aspirated, and the cells were precipitated by the addition of 10% trichloroacetic acid (Sigma-Aldrich, Missouri, US). After overnight incubation at 4°C, the plates were washed three times with deionized water. The precipitates were then stained with SRB (0.4% wt/v sulforhodamine B solution in 1% acetic acid, Sigma-Aldrich, Missouri, US). Afterwards, the plates were washed six times with 1% acetic acid to remove unbound stain. After drying the plates at room temperature, the bound SRB was solubilized with 10 mM Tris base and the optical density was measured at 520 nm using a Victor2 plate reader (Perkin Elmer, Germany). Blank OD values were subtracted from mean OD values for each concentration. The nonlinear curve ﬁtting and EC50 calculations were per formed using XLﬁt and algorithm “205” (ID Business […]
(§5) For cell-based and other in vitro assays, data are presented as data mean ± SD of at least […]
(§6) For the orthotopic mouse model, data are presented as mean + SEM. For statistical analysis, one-way ANOVA and multiple comparison (Dunnett) was performed for compound treatments compared to vehicle control. The adjusted p-values with 95% confidence interval were reported as significant. For comparison of EC50 values in Figure 1F, one-way ANOVA with multiple comparison testing (Tukey) was performed. Multiplicity adjusted p -values for the EC50 with sorafenib versus resminostat for each cell line and comparison between cell lines for sorafenib are presented (95% confidence interval for significance testing). For comparison of EC50 data in Figure 2B, one-way ANOVA with multiple comparison testing (Tukey) was performed. Multiplicity adjusted p-values with 95% confidence interval was applied. For the […]

[2] = system: SW620; settings: SW620, colon
Method: as §1, §2, §3, §4, §5, §6

[3] = system: HepG2; settings: Homo sapiens, HepG2, 72 h, HEPG2, liver
Method: as §1, §2, §3, §4, §5, §6

[4] = system: 5637 (HTB-9)
Method: as §1, §2, §3, §4, §5, §6

[5] = system: DLD1; settings: Homo sapiens, DLD-1, DLD1, colon, 72 h
Method: as §1, §2, §3, §4, §5, §6

[6] = system: SKOV3; settings: SKOV3, ovary
Method: as §1, §2, §3, §4, §5, §6

[7] = system: DU145; settings: DU145, prostate
Method: as §1, §2, §3, §4, §5, §6

[8] = system: HEK293; settings: HEK293, kidney
Method: as §1, §2, §3, §4, §5, §6

[9] = system: TE671; settings: TE671, muscle
Method: as §1, §2, §3, §4, §5, §6

[10] = system: COLO205; settings: COLO205, colon
Method: as §1, §2, §3, §4, §5, §6

[11] = system: U87MG; settings: 72 h, brain
Method: as §1, §2, §3, §4, §5, §6

[12] = system: SF295; settings: SF295, brain
Method: as §1, §2, §3, §4, §5, §6

[13] = log of EC50, negative, read-out: log(EC50) (converted)

CN(C)Cc1ccc(S(=O)(=O)n2ccc(/C=C/C(=O)NO)c2)cc1 [resminostat, Resminostat]
EC50 [1, 13]: 3.31 µM | EC50 ([1]; read-out: EC50): 3.34 µM | EC50 ([2]; Homo sapiens, SW-620, 72 h, log of EC50, negative, read-out: log(EC50) (converted)): 1.29 µM | EC50 ([2]; Homo sapiens, SW-620, 72 h, read-out: EC50): 1.27 µM | EC50 ([2]; 72 h, read-out: EC50): 1.27 µM | EC50 [3, 13]: 0.501 µM | EC50 ([3]; read-out: EC50): 0.504 µM | EC50 ([4]; 72 h, bladder, log of EC50, negative, read-out: log(EC50) (converted)): 1.12 µM | EC50 ([4]; 72 h, bladder, read-out: EC50): 1.13 µM | EC50 ([4]; bladder, 72 h, read-out: EC50): 1.13 µM | EC50 [5, 13]: 1.95 µM | EC50 ([5]; read-out: EC50): 1.95 µM | EC50 ([6]; Homo sapiens, SK-OV-3, 72 h, log of EC50, negative, read-out: log(EC50) (converted)): 3.72 µM | EC50 ([6]; Homo sapiens, SK-OV-3, 72 h, read-out: EC50): 3.69 µM | EC50 ([6]; 72 h, read-out: EC50): 3.69 µM | EC50 ([7]; 72 h, read-out: EC50): 1.38 µM | EC50 ([7]; Homo sapiens, DU-145, 72 h, log of EC50, negative, read-out: log(EC50) (converted)): 1.38 µM | EC50 ([7]; Homo sapiens, DU-145, 72 h, read-out: EC50): 1.38 µM | EC50 ([8]; 72 h, read-out: EC50): 4.76 µM | EC50 ([8]; Homo sapiens, HEK293, 72 h, log of EC50, negative, read-out: log(EC50) (converted)): 4.79 µM | EC50 ([8]; Homo sapiens, HEK293, 72 h, read-out: EC50): 4.76 µM | EC50 ([9]; Homo sapiens, TE-671, 72 h, log of EC50, negative, read-out: log(EC50) (converted)): 1.35 µM | EC50 ([9]; Homo sapiens, TE-671, 72 h, read-out: EC50): 1.34 µM | EC50 ([9]; 72 h, read-out: EC50): 1.34 µM | EC50 ([10]; 72 h, read-out: EC50): 2.54 µM | EC50 ([10]; Homo sapiens, COLO 205, 72 h, log of EC50, negative, read-out: log(EC50) (converted)): 2.57 µM | EC50 ([10]; Homo sapiens, COLO 205, 72 h, read-out: EC50): 2.54 µM | EC50 ([11]; Homo sapiens, U-87 MG, log of EC50, negative, read-out: log(EC50) (converted)): 5.5 µM | EC50 ([11]; Homo sapiens, U-87 MG, read-out: EC50): 5.55 µM | EC50 ([11]; read-out: EC50): 5.55 µM | EC50 ([12]; Homo sapiens, SF-295, 72 h, log of EC50, negative, read-out: log(EC50) (converted)): 2.51 µM | EC50 ([12]; Homo sapiens, SF-295, 72 h, read-out: EC50): 2.53 µM | EC50 ([12]; 72 h, read-out: EC50): 2.53 µM
